According to PMC9080042, “Biochemical and kinetic characterization of laccase and manganese peroxidase from novel Klebsiella pneumoniae strains and their application in bioethanol production” (RSC Advances, 2018):

Columns and labels:
Assay in all cases: ABTS oxidation at […] nm, Lineweaver-Burk
Format in all cases: biochemical, Klebsiella pneumoniae
laccase (NITW715076) = tested on: T1, laccase (NITW715076); conditions: 0.1 M citrate buffer pH 5.0, optimum temperature (50 °C); methods call the enzyme partially purified; read-out: Laccase / K m
T1 construct: gene lac; native extracellular enzyme from culture supernatant; ammonium sulphate, dialysis, DEAE-sepharose; 66 kDa by SDS-PAGE; gene not identified

laccase (NITW715076_2) = tested on: T2, laccase (NITW715076_2); conditions: 0.1 M citrate buffer pH 5.0, optimum temperature (60 °C); methods call the enzyme partially purified; read-out: Laccase / K m
T2 construct: gene lac; native extracellular enzyme from culture supernatant; ammonium sulphate, dialysis, DEAE-sepharose; 66 kDa by SDS-PAGE; gene not identified

laccase (NITW715076_1) = tested on: T3, laccase (NITW715076_1); conditions: 0.1 M citrate buffer pH 5.0, optimum temperature (50 °C); methods call the enzyme partially purified; read-out: Laccase / K m
T3 construct: gene lac; native extracellular enzyme from culture supernatant; ammonium sulphate, dialysis, DEAE-sepharose; 66 kDa by SDS-PAGE; gene not identified

For CCn1c(=NN=c2sc3cc(S(=O)(=O)O)ccc3n2CC)sc2cc(S(=O)(=O)O)ccc21 [ABTS, 2,2′-azino-bis(3-ethylbenzothiazoline)-6-sulfonic acid], the Km (laccase (NITW715076)) was 467 µM, the Km (laccase (NITW715076_2)) was 380 µM and the Km (laccase (NITW715076_1)) was 3970 µM.
